Where no end group is shown, it is not given here.
Experiments:
[1] = tested on: epitope peptide; assay: Antibody titer (GMT) of serum of mice administered AJP001 conjugated peptide, ELISA; type: in vivo, mouse; settings: BALB/c mice, 0.5 mg/body intradermal with equal amount of 2% Alhydrogel, 3 times at two-week intervals; serum 6 weeks after initial administration; titer to each epitope sequence
Method: AJP001 conjugated peptide having one of the B cell epitope sequences of SEQ ID NOs: 1-5 was dissolved in physiological saline and intradermally administered twice to BALB/c mice (female, 6-week-old, N=5-6) at 0.5 mg/body at 2-week intervals. Blood was collected before administration and 5 weeks after the initial administration, and the antibody titer against each AJP001 conjugated peptide and the binding ability to recombinant mouse IL-23 protein (rmIL-23) were measured by the ELISA method. Specifically, a 96-well plate immobilized with an epitope peptide dissolved at 10 μg/mL in carbonate buffer was blocked with 5% skim milk/PBS, and then serum serially diluted with 5% skim milk/PBS was added, and the mixture was left standing at 4° C. overnight. After washing the wells with PBS-T, HRP-labeled anti-mouse IgG antibody (GE Healthcare) diluted with 5% skim milk/PBS was added and the mixture was shaken at room temperature for 3 hr. After washing the wells with PBS-T, TMB solution (SIGMA) was added, the wells were allowed to stand for 30 min in the dark, the reaction was stopped by adding 0.5M H2SO4, and the absorbance at 450 nm was measured using a plate reader. The serum dilution rate that gave 1/2 (OD=1.75) of the maximum absorbance was defined as the antibody titer, and the geometric mean titer: GMT was calculated from the individual values. Binding to IL-23 protein was measured by the ELISA method in the same manner as the antibody titer, using rmIL-23 (Antibodies-online GmbH) as the solid-phased antigen and goat serum for blocking.
AJP001 conjugated peptide (SEQ ID NO: 2) was dissolved in physiological saline and intradermally administered to BALB/c mice (female, 6-week-old, N=6) at 1 mg/body 3 times at two-week intervals, and blood was collected every 2 weeks until 8 weeks. The antibody titer (GMT) of all the collected sera and the binding ability to rmIL-23 of the serum at the time point of 6 weeks were measured by the ELISA method (same method as in Example 1). The antibody titer and the binding of the induced antibody to rmIL-23 at each time point are shown in FIGS. 2 (a) and (b), respectively.
AJP001 conjugated peptide (SEQ ID NOs: 6-37) was dissolved in physiological saline, mixed with an equal amount of 2% Alhydrogel (invivogen), and this was intradermally administered to BALB/c mice (female, 6-week-old, N=5-6) at 0.5 mg/body 3 times at two-week intervals. Blood was collected before administration and at the time point of 6 weeks after initial administration, and the antibody titer (GMT) to each epitope sequence and binding ability to recombinant human IL-23 protein (rhIL-23) (Peprotech) were measured by the ELISA method (same method as in Example 1). The binding to rhIL-23 was evaluated by a binding ratio to normal serum by calculating the ratio of the absorbance of a well added with normal mouse serum to the absorbance of a well added with antiserum derived from a mouse administered with each AJP001 conjugated peptide (SEQ ID NOs: 6-37). In addition, the neutralization activity of mouse antiserum was evaluated using an action on IL-17 production in rhIL-23 stimulated mouse splenocyte as an index. The spleen of normal BALB/c mouse (female, 5-week-old, N=3) was triturated using a syringe barrel and a cell strainer and washed with and suspended in HBSS (−). Erythrocytes were then removed using ACK Buffer (Thermo fisher scientific), and splenocytes were isolated. The splenocytes were prepared to 2.5×10^6 cells/mL with 10% FBS/1% penicillin/streptomycin/4 ng/mL rmIL-2-containing RPMI1640 medium (culture medium), and seeded in a 96 well plate at 100 μl/well. The antiserum (final concentration 15-fold) of the mice administered with each AJP001 conjugated peptide and rhIL-23 (final concentration 10 ng/ml) were added to the culture medium, reacted at 37° C. for 2 hr, added at 100 μL/well to a 96-well plate seeded with splenocytes, and cultured for 3 days in a 37° C./5% CO2 incubator. […]

[2] = tested on: recombinant human IL-23 protein (rhIL-23); assay: Binding of mouse antiserum to rhIL-23, ELISA; settings: rhIL-23 ELISA; antiserum of BALB/c mice 6 weeks after initial administration, 0.5 mg/body with Alhydrogel
Method: (§1) AJP001 conjugated peptide (SEQ ID NOs: 6-37) was dissolved in physiological saline, mixed with an equal amount of 2% Alhydrogel (invivogen), and this was intradermally administered to BALB/c mice (female, 6-week-old, N=5-6) at 0.5 mg/body 3 times at two-week intervals. Blood was collected before administration and at the time point of 6 weeks after initial administration, and the antibody titer (GMT) to each epitope sequence and binding ability to recombinant human IL-23 protein (rhIL-23) (Peprotech) were measured by the ELISA method (same method as in Example 1). The binding to rhIL-23 was evaluated by a binding ratio to normal serum by calculating the ratio of the absorbance of a well added with normal mouse serum to the absorbance of a well added with antiserum derived from a mouse administered with each AJP001 conjugated peptide (SEQ ID NOs: 6-37). In addition, the neutralization activity of mouse antiserum was evaluated using an action on IL-17 production in rhIL-23 stimulated mouse splenocyte as an index. The spleen of normal BALB/c mouse (female, 5-week-old, N=3) was triturated using a syringe barrel and a cell strainer and washed with and suspended in HBSS (−). Erythrocytes were then removed using ACK Buffer (Thermo fisher scientific), and splenocytes were isolated. The splenocytes were prepared to 2.5×10^6 cells/mL with 10% FBS/1% penicillin/streptomycin/4 ng/mL rmIL-2-containing RPMI1640 medium (culture medium), and seeded in a 96 well plate at 100 μl/well. The antiserum (final concentration 15-fold) of the mice administered with each AJP001 conjugated peptide and rhIL-23 (final concentration 10 ng/ml) were added to the culture medium, reacted at 37° C. for 2 hr, added at 100 μL/well to a 96-well plate seeded with splenocytes, and cultured for 3 days in a 37° C./5% CO2 incubator. An untreated well and a control well to which normal mouse serum and rhIL-23 were added were provided. IL-17A/F in the culture supernatant was measured using Mouse IL-17A/F ELISA kit (R&D systems), the proportion (%) of IL-17 to normal serum was calculated from the IL-17 concentrations of untreated well (A), control well (B), and well (C) to which antiserum of the mice administered with each AJP001 conjugated peptide was added and according to the following formula, and the neutralization activity was evaluated.
AJP001 conjugated peptide (SEQ ID NO: 6) was dissolved in physiological saline and intradermally administered to BALB/c mice (female, 6-week-old, N=6) at 1 mg/body 3 times at two-week intervals, and blood was collected every 2 weeks until 8 weeks. The antibody titer (GMT) of all the collected sera and the binding ability to rhIL-23 of the serum at 6 weeks were measured by the ELISA method. In FIG. 5, “*” means P<0.05.

[3] = tested on: IL-17 production in rhIL-23 stimulated mouse splenocyte; assay: Neutralization activity of mouse antiserum: IL-17 production in rhIL-23 stimulated mouse splenocyte; type: cell-based; settings: antiserum final 15-fold, rhIL-23 10 ng/ml, 3 days culture; IL-17A/F ELISA
Method: as §1
Percentage of IL-17 to normal serum (%)=100×(C−A/B−A)

[4] = target: T1, p19 subunit (Homo sapiens, UniProt Q9NPF7); settings: compared with Ustekinumab; cited from earlier work
T1 sequence (Q9NPF7 20-189): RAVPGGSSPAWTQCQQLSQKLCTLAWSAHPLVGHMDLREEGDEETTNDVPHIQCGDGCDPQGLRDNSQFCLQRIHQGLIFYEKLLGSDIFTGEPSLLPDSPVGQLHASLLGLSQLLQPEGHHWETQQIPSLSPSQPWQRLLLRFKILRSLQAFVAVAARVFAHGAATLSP
T1 sequence (P29460 23-328 partner): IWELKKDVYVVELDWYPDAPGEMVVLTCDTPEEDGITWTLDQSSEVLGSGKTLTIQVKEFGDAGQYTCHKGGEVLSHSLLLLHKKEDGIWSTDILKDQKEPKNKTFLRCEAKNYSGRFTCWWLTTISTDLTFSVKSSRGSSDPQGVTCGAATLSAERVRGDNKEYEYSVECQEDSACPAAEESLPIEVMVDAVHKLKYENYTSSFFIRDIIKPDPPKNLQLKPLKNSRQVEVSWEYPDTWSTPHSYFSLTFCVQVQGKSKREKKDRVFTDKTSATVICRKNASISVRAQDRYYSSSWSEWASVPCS

Substance	binding to IL-23 (binding ratio to normal serum) [2]	antibody titer (GMT) [1]	neutralization activity (percentage of IL-17 to normal serum (%)) [3] [%]	PASI90 (almost complete disappearance of psoriasis lesion) rate [4]
26 (STSQQWQR; not fully specified (N-terminus)) [compound 26]	1.15	64652	0.0	–
27 (KPSQPWQR; not fully specified (N-terminus)) [compound 27]	1.07	12615	72.3	–
28 (SKSQPWQR; not fully specified (N-terminus)) [compound 28]	1.13	4324	42.2	–
29 (SPKQPWQR; not fully specified (N-terminus)) [compound 29]	1.11	9056	63.9	–
30 (KKSQPWQR; not fully specified (N-terminus)) [compound 30]	1.2	6917	68.9	–
31 (PSQPWQR; not fully specified (N-terminus); listed as Homo sapiens) [compound 31]	0.99	12417	63.4	–
32 (SQPWQR; not fully specified (N-terminus); listed as Homo sapiens) [compound 32]	1.03	5567	61.3	–
Risankizumab	–	–	–	about twice as high as that of Ustekinumab

Continued, in another order:

binding to IL-23 (binding ratio to normal serum) [2]	Substance	antibody titer (GMT) [1]	neutralization activity (percentage of IL-17 to normal serum (%)) [3] [%]	PASI90 (almost complete disappearance of psoriasis lesion) rate [4]
1.00	33 (QPWQR; not fully specified (N-terminus); listed as Homo sapiens) [compound 33]	16458	72.6	–
0.97	34 (PSQPWQRK; not fully specified (N-terminus); listed as Homo sapiens) [compound 34]	362	32.5	–
1.30	35 (SQPWQRK; not fully specified (N-terminus); listed as Homo sapiens) [compound 35]	92	32.5	–
1.10	36 (QPWQRSQPWQR; not fully specified (N-terminus)) [compound 36]	8202	70.3	–
1.05	37 (QPWQRGGGGSQPWQR; not fully specified (N-terminus)) [compound 37]	6459	63.9	–
